Legend:
[1] = biological target: T1, aldosterone synthase (CYP11B2) (Macaca fascicularis, UniProt A0A2K5UPL9); experiment: Inhibition of aldosterone synthase (cynomolgus adrenal mitochondria, aldosterone by mass spectrometry); format: biochemical, cynomolgus monkey; settings: cynomolgus adrenal gland mitochondria, 2 μM corticosterone substrate, 90 minutes at 37° C.
T1 construct: cynomolgus adrenal gland mitochondria as the source of aldosterone synthase (CYP11B2); from tissue; host or cells: cynomolgus monkey adrenal gland mitochondria
T1 sequence (A0A2K5UPL9 1-503): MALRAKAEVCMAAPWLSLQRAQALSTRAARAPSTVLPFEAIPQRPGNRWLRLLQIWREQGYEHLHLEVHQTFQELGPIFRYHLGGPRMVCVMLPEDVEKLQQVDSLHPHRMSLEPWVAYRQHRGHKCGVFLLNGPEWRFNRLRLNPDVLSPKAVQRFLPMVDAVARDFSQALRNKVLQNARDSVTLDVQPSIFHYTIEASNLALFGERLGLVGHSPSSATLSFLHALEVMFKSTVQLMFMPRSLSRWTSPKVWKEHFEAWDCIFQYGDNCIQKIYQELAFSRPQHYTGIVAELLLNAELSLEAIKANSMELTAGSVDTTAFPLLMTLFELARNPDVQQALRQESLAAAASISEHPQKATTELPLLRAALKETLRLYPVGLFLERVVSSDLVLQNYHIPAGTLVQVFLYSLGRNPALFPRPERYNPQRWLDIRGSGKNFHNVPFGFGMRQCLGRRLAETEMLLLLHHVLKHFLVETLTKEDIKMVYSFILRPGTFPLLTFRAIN
How it was run: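 Cynomolgus adrenal mitochondria (50 units CYP11B2 activity) with 2 μM corticosterone in 100 mM potassium phosphate pH 7.4, 1% DMSO. Started with 1 mM NADPH, 90 min at 37° C. Aldosterone measured by mass spectrometry; IC50 from 4-parameter logistic fit, NADPH-free reactions as blank.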

[2] = biological target: cortisol synthase (CYP11B1) (Macaca fascicularis, UniProt A0A2K5ULY1); experiment: Inhibition of cortisol synthesis (cynomolgus adrenal mitochondria, cortisol by mass spectrometry); format: biochemical, cynomolgus monkey; settings: cynomolgus adrenal gland mitochondria, 11-deoxycortisol as substrate, cortisol measured as product; read-out: CYP11B1 Inhibition IC50
How it was run: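 Cynomolgus adrenal mitochondria supplied CYP11B1 (150 units) with 11-deoxycortisol as substrate, plus NADPH; cortisol product measured by mass spectrometry. Activity expressed as % of compound-free NADPH control across compound concentrations; IC50 from 4-parameter logistic fit.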

| Structure (SMILES) | IC50 [1] | IC50 [2] |
| --- | --- | --- |
| CN(C)C(=O)CCOc1ccc(Cc2onc3c2C(=O)CC(C)(C)C3)cc1 [Cpd 82, 3-[4-(6,6-Dimethyl-4-oxo-4,5,6,7-tetrahydro-benzo[c]isoxazol-3-ylmethyl)-phenoxy]-N,N-dimethyl-propionamide] | 44 nM | 4 µM |
| CC1(C)CC(=O)c2c(noc2Cc2ccc(OCCC(=O)N3CC[C@@H](O)C3)cc2)C1 [Cpd 83, 3-{4-[3-((R)-3-Hydroxy-pyrrolidin-1-yl)-3-oxo-propoxy]-benzyl}-6,6-dimethyl-6,7-dihydro-5H-benzo[c]isoxazol-4-one] | 69 nM | 2.7 µM |
| CC1(C)CC(=O)c2c(noc2Cc2ccc(OCCCC(=O)N3CC[C@@H](O)C3)cc2)C1 [Cpd 84, 3-{4-[4-((R)-3-Hydroxy-pyrrolidin-1-yl)-4-oxo-butoxy]-benzyl}-6,6-dimethyl-6,7-dihydro-5H-benzo[c]isoxazol-4-one] | 69 nM | 6.9 µM |
| CC1(C)CC(=O)c2c(noc2Cc2ccc(OCCS(C)(=N)=O)cc2)C1 (stereo not drawn) [Cpd 85, 3-[4-(2-Methanesulfoximine-ethoxy)-benzyl]-6,6-dimethyl-6,7-dihydro-5H-benzo[c]isoxazol-4-one] | 56 nM | 6.5 µM |
| CC1(C)Cc2noc(Cc3ccc(C#N)cc3)c2C(=O)O1 [Cpd 87, 4-(6,6-Dimethyl-4-oxo-6,7-dihydro-4H-pyrano[4,3-c]isoxazol-3-ylmethyl)-benzonitrile] | 220 nM | 77 µM |
| CC1(C)Cc2noc(Cc3ccc(F)cc3)c2C(=O)O1 [Cpd 88, 3-(4-Fluoro-benzyl)-6,6-dimethyl-6,7-dihydro-pyrano[4,3-c]isoxazol-4-one] | 190 nM | 25 µM |
| COc1ccc(Cc2onc3c2C(=O)OC(C)(C)C3)cc1 [Cpd 89, 3-(4-Methoxy-benzyl)-6,6-dimethyl-6,7-dihydro-pyrano[4,3-c]isoxazol-4-one] | 27 nM | 9.8 µM |
| CC1(C)Cc2noc(CC3CCOCC3)c2C(=O)O1 [Cpd 92, 6,6-Dimethyl-3-(tetrahydro-pyran-4-ylmethyl)-6,7-dihydro-pyrano[4,3-c] isoxazol-4-one] | 340 nM | 69 µM |
| CC1(C)Cc2noc(Cc3ccc(C(=O)N4CC[C@@H](O)C4)cc3)c2C(=O)O1 [Cpd 93, 3-[4-((R)-3-Hydroxy-pyrrolidine-1-carbonyl)-benzyl]-6,6-dimethyl-6,7-dihydro-pyrano[4,3-c]isoxazol-4-one] | 73 nM | 2.6 µM |
| CN1CCN(C(=O)c2ccc(Cc3onc4c3C(=O)OC(C)(C)C4)cc2)CC1=O [Cpd 97, 6,6-Dimethyl-3-[4-(4-methyl-3-oxo-piperazine-1-carbonyl)-benzyl]-6,7-dihydro-pyrano[4,3-c]isoxazol-4-one] | 170 nM | 11 µM |

More lines, now with the values ahead:

| IC50 [1] | IC50 [2] | Structure (SMILES) |
| --- | --- | --- |
| 16 nM | 4.6 µM | CC1(C)Cc2noc(Cc3ccc(OCCCS(C)(=O)=O)cc3)c2C(=O)O1 [Cpd 90, 3-[4-(3-Methanesulfonyl-propoxy)-benzyl]-6,6-dimethyl-6,7-dihydro-pyrano[4,3-c]isoxazol-4-one] |
| 120 nM | 21 µM | CC1(C)Cc2noc(Cc3ccc(OCCS(C)(=O)=O)cc3)c2C(=O)O1 [Cpd 91, 3-[4-(2-Methanesulfonyl-ethoxy)-benzyl]-6,6-dimethyl-6,7-dihydro-pyrano[4,3-c]isoxazol-4-one] |
| 42 nM | 4.3 µM | CC1(C)Cc2noc(Cc3ccc(C(=O)NCCS(C)(=O)=O)cc3)c2C(=O)O1 [Cpd 94, 4-(6,6-Dimethyl-4-oxo-6,7-dihydro-4H-pyrano[4,3-c]isoxazol-3-ylmethyl)-N-(2-methanesulfonyl-ethyl)-benzamide] |
| 71 nM | 16 µM | CC1(C)Cc2noc(Cc3ccc(C(N)=O)cc3)c2C(=O)O1 [Cpd 95, 4-(6,6-Dimethyl-4-oxo-6,7-dihydro-4H-pyrano[4,3-c]isoxazol-3-ylmethyl)-benzamide] |
| 73 nM | 10 µM | CN(CCO)C(=O)c1ccc(Cc2onc3c2C(=O)OC(C)(C)C3)cc1 [Cpd 96, 4-(6,6-Dimethyl-4-oxo-6,7-dihydro-4H-pyrano[4,3-c]isoxazol-3-ylmethyl)-N-(2-hydroxy-ethyl)-N-methyl-benzamide] |
